Measurements from PMC7476584, “Lipophilicity trends upon fluorination of isopropyl, cyclopropyl and 3-oxetanyl groups” (Beilstein Journal of Organic Chemistry, 2020).
Where “and” joins values, the source holds several entries; their conditions need not be identical. Identical values can stand only once. Like-named read-outs stand apart in the source and are kept apart here. Blank lines part the entries; values can stand above or below the compound they belong to.

Key:
[1] = Shake-flask lipophilicity (logP, logD7.4) of literature examples; assay type: physicochemical; details: geminal dimethyl 1 to cyclopropyl 2
[2] = 19F NMR-based octanol/water logP determination; details: for logP: n-octanol/water; for logP / logP (individual measurement): octanol/water, 25 °C, 19F NMR
[3] = SMD implicit solvation, MN15; values taken from the literature; cited from earlier work
[4] = cited from earlier work
[5] = parameters: method as in PMID 31414105, PMID 29999054; details: series B, reversed-phase HPLC; cited from earlier work
[6] = Table S1; ref Hansch, Leo, Hoekman, Exploring QSAR, 1995; cited from earlier work
[7] = physchem
[8] = logP (average logP), triplicate
[9] = logP (individual measurement), single experiment
[10] = logP average with error (standard deviation), triplicate, column Error

ΔlogD7.4 [1]: +0.73
ΔlogP [1]: +0.34
Structure (SMILES): O=C(c1ccc(CN2CCOCC2)cc1)N1CCN(C2CC2)CC1 [compound 2]

logP [2, 8]: 0.98
logP [2, 9]: 0.977
logP [2, 10]: 0.978
logP (individual measurement) ([2]; single experiment): +0.978 and +0.979
Structure (SMILES): CC(CO)C(F)(F)F (centres unmarked) [D5, 3,3,3-trifluoro-2-methylpropan-1-ol]

Structure (SMILES): OCCC(F)(F)CF [G8]
logPtheor (DFT) [3]: 1.30

Structure (SMILES): C[C@@](CCN1Cc2cc(C#CC#C[C@@H]3C[C@H]3CO)cn2C1=O)(C(=O)NO)S(C)(=O)=O [7c]
logD7.4 ([4]; pH 7.4): 1.1

Structure (SMILES): FC1(F)CC1(F)c1ccccc1 (centres unmarked) [B7]
logP [5]: +2.94

Structure (SMILES): CN(C)CCCCc1ccc(C2COC2)cc1 [C1]
logD7.4 ([4]; pH 7.4): –0.1

Structure (SMILES): CCCCCCCO [1-heptanol]
Experimental logP for selected nonfluorinated alkanols [6]: 2.72

Structure (SMILES): CCCCCCC(C)O (centres unmarked) [2-octanol]
Experimental logP for selected nonfluorinated alkanols [6]: 2.90

Structure (SMILES): CC(C)(C)CO [2,2-dimethylpropan-1-ol]
Experimental logP for selected nonfluorinated alkanols [6]: 1.31

Structure (SMILES): C[C@@](CCN1Cc2cc(C#CC#C[C@H]3C[C@@H]3CO)cn2C1=O)(C(=O)NO)S(C)(=O)=O [7a]
logD7.4 ([4]; pH 7.4): 1.3

Structure (SMILES): CCCCC(O)CCC (centres unmarked) [4-octanol]
Experimental logP for selected nonfluorinated alkanols [6]: 2.68

logP reduction ([2]; G9 to E2): 0.72 logP units
logP [2, 8]: -0.05
logP [2, 10]: -0.054
logP (individual measurement) ([2]; single experiment): -0.06
Structure (SMILES): OCC1(F)CC1 [E2, (1-fluorocyclopropyl)methanol]

Structure (SMILES): CN(C)CCCCc1ccc(C2(F)COC2)cc1 [C2]
logD7.4 ([4]; pH 7.4): –0.5

Structure (SMILES): CCCCC(C)O (centres unmarked) [2-hexanol]
Experimental logP for selected nonfluorinated alkanols [6]: 1.76

logP [2, 8]: 0.58
logP [2, 9]: 0.583
logP [2, 10]: 0.583
logP (individual measurement) ([2]; single experiment): +0.576 and +0.589
Structure (SMILES): CC(CO)C(F)F (centres unmarked) [D4, 3,3-difluoro-2-methylpropan-1-ol]

Structure (SMILES): CN(C)CCCCc1ccc(C(C)(C)C)cc1 [compound 3]
logD7.4 ([4]; pH 7.4): 2.5

Structure (SMILES): F[C@@H]1[C@H](F)[C@@]1(F)c1ccccc1 [B2]
logP [5]: +2.56

Structure (SMILES): CCCC(O)CC (centres unmarked) [3-hexanol]
Experimental logP for selected nonfluorinated alkanols [6]: 1.65

Structure (SMILES): OCCC(F)CF (centres unmarked) [G7, 3,4-difluorobutan-1-ol]
logPtheor (DFT) [3]: 1.06

Structure (SMILES): CCCC(O)CCC [4-heptanol]
Experimental logP for selected nonfluorinated alkanols [6]: 2.22

Structure (SMILES): CCC(O)CC [3-pentanol]
Experimental logP for selected nonfluorinated alkanols [6]: 1.21

Structure (SMILES): CCCCCC(C)O (centres unmarked) [2-heptanol]
Experimental logP for selected nonfluorinated alkanols [6]: 2.31

Structure (SMILES): C[C@@](CCN1Cc2cc(C#CC#C[C@H]3C[C@]3(F)CO)cn2C1=O)(C(=O)NO)S(C)(=O)=O [7b]
logD7.4 ([4]; pH 7.4): 0.9

Structure (SMILES): CN(C)CCCCc1ccc(C2(C)COC2)cc1 [compound 4]
logD7.4 ([4]; shake-flask): -0.1
logP ([4]; shake-flask): 2.4

Structure (SMILES): CC(C)C(C)O (centres unmarked) [3-methyl-2-butanol]
Experimental logP for selected nonfluorinated alkanols [6]: 1.28

Δ logP branched vs linear ([2]; D2 vs G2): 0.16
logP [2, 8]: 0.1
logP [2, 9]: 0.11
logP [2, 10]: 0.104
logP (individual measurement) ([2]; single experiment): +0.10
Structure (SMILES): CC(C)(F)CO [D2, 2-fluoro-2-methylpropan-1-ol]

Structure (SMILES): C[C@@](CCN1Cc2cc(C#CC#C[C@@H]3C[C@@]3(F)CO)cn2C1=O)(C(=O)NO)S(C)(=O)=O [7d]
logD7.4 ([4]; pH 7.4): 0.9

Structure (SMILES): c1ccc(C2CC2)cc1 [B1]
logP [5]: +3.40

Structure (SMILES): FC1(F)CC1c1ccccc1 (centres unmarked) [B6]
logP [5]: +2.91

Structure (SMILES): CC(CO)CF (centres unmarked) [D3, 3-fluoro-2-methylpropan-1-ol]
logP ([7]; logP (average logP)): 0.29
logP ([7]; logP (individual measurement)): 0.28
logP ([7]; logP average with error (standard deviation)): 0.289
